Each block holds one compound with its values, some of them ahead of it.
How the values were obtained:
[1] = Allicin bioavailability or bioequivalence bioassay: 32-h breath allyl methyl sulfide (AMS) concentration curve after consumption; type: in vivo, human; conditions: two tests, same person
[2] = design: method as in PMID 25681129; conditions: cited from earlier work
[3] = design: method as in doi:10.1055/s-2006-959976; conditions: added to whole blood; cited from earlier work
[4] = cited from earlier work

- Differences in Tmax, RF2, or RRF2 versus natural L(+)-alliin [1]: No significant differences
Structure (SMILES): C=CC[S+]([O-])C[C@H](N)C(=O)O (mixture of isomers) [L(±)-alliin]

Structure (SMILES): C=CCSCC(N)C(=O)O (stereo not shown) [S-allyl-cysteine, S-allylcysteine]
- Administered dose accounted for among the urinary metabolites [2]: 13%
- Dose in urine as SAC plus N-acetyl-SAC [2]: 1%
- Dose in urine as alliin plus N-acetyl-alliin [2]: 12%
- Unknown metabolites [2]: 87%

Structure (SMILES): C=CCS[S+]([O-])CC=C (stereo not shown) [allicin, diallyl thiosulfinate]
- Half-life of metabolism to allyl mercaptan [3]: < 1 min
- Share of the allicin consumed accounted for by breath AMS [4]: at least 90%
